Assay results taken from patent US20120264231A1, “ASSAY FOR ORAI CALCIUM CHANNEL REGULATORS” (IMMUNE DISEASE INSTITUTE, INC., priority 2009, published 2012).
Where two headings read alike, the source gives them in different places.

Experiments:
[1] = system: P pastoris cells that were not engineered to express ORAI3
Procedure: (§1) Human ORAI3 was expressed in P. pastoris as described below. Then ^45Ca^2+ uptake was measured in a suspension of P. pastoris cells expressing ORAI3, after addition of 2-aminoethoxydiphenyl borate (2-APB), a compound known to activate ORAI3 expressed in mammalian cells.
• Streaked out Pichia glycerol stock on RDB-plate • Grew 2-5 days at 30° C. (until colonies are large enough to easily remove) Seeded 5 mL MGY medium with 1 colony • Grew 2 days in 50 mL Falcon tube (cap partially unscrewed but taped on to allow aeration), 250 rpm, 30° C. • Seeded 50 mL MGY with the 5 mL culture (use a yeast-specific baffled flask; if scaled up, the volume of the culture was 1/10th the volume of the flask) • Grew o/n, 30° C., 250 rpm • At OD ˜2-3, spun down, checked OD and resuspended in MMY at an approximate OD of 6 (i.e., 6×5E7 cells/mL) • Grew 4 h at 28.5° C., 250 rpm, 28.5° C., with the top of the flask covered in gauze (not foil or a lid—a lot of aeration needed for induction. The temperature was under 30° C.) • Measured OD • Washed 3×25 mL in Solution A • Resuspended in Solution A for a final OD of 2 (1×10^8 cells/mL) […]

human ORAI3 = human ORAI3 (Homo sapiens, UniProt Q9BRQ5); conditions: for ^45Ca^2+ uptake (cpm): 75 μM 2-APB
Procedure: as §1
Individual colonies were picked, and ORAI3 protein expression was induced by growth for eight hours in MMY medium (containing 0.5% methanol), whose formulation is given below. Cells were collected by centrifugation, and disrupted by vortexing in an Eppendorf tube with 0.5 mm glass beads. Beads, unbroken cells, and debris were removed by centrifugation at 5000 rpm in a benchtop centrifuge. The supernatant from that centrifugation was centrifuged at 100,000×g to pellet cell membranes. Cell membranes were resuspended, protein concentrations determined by Lowry or Bradford assay, and an equal amount of protein from each sample subjected to SDS-polyacrylamide gel electrophoresis and western blotting. The relative levels of Myc-ORAI3 expressed by individual colonies were compared by western blotting with antibody to the Myc tag. Colonies expressing relatively high levels of ORAI3 protein were used for the ^45Ca^2+ uptake assay.
• Streaked out Pichia glycerol stock on RDB-plate • Grew 2-5 days at 30° C. (until colonies are large enough to easily remove) Seeded 5 mL MGY medium with 1 colony • Grew 2 days in 50 mL Falcon tube (cap partially unscrewed but taped on to allow aeration), 250 rpm, 30° C. • Seeded 50 mL MGY with the 5 mL culture (use a yeast-specific baffled flask; if scaled up, the volume of the culture was 1/10th the volume of the flask) • Grew o/n, 30° C., 250 rpm • At OD ˜2-3, spun down, checked OD and resuspended in MMY at an approximate OD of 6 (i.e., 6×5E7 cells/mL) • Grew 4 h at 28.5° C., 250 rpm, 28.5° C., with the top of the flask covered in gauze (not foil or a lid—a lot of aeration needed for induction. The temperature was under 30° C.) • Measured OD • Washed 3×25 mL in Solution A • Resuspended in Solution A for a final OD of 2 (1×10^8 cells/mL)
• (Prepared everything else: 1 μCi/μL ^45CaCl2, 1 mL Solution S aliquots in tubes that can hold at least 2 mL, tips, etc.) • Spun sample (either 1 mL or the multiple-mL timepoint aliquot) down at 2000×g and resuspended in an equal volume of Solution C • (where applicable, added 2-APB or other things such as Solution S or lanthanum here. 75 μM 2-APB with Orai3.) • Added 1 μCi ^45CaCl2/Ml • Incubated as appropriate • When timepoint was taken, 1 mL sample (gently pipetted up and down, since Pichia settle) and added to 1 mL Solution S • Collected all samples • (This was repeated for each sample.) Presoaked 2.5 cm Whatman GF/F filter in place on the filter apparatus with 1 mL Solution S • Added the 2 mL sample/Solution S mix to the column • Turned on the vacuum and wash 3×15 mL with Solution W • Let filter dry under vacuum & removed to scintillation vial • Placed filter flat on the bottom of the vial, yeast-side up • Carefully added scintillation fluid • Counted in scintillation counter (^45Ca settings, if possible: window is 0-750, quench curve calibrations)

STIM1−/− T cells = test: Single-cell [Ca2+]i measurement in STIM1−/− T cells expressing STIM1 fragments; assay type: cell-based, murine
Text: To determine the competence of STIM 1 fragments to activate ORAI1 in mammalian cells, Myc-tagged STIM 1^CT and its truncated variants were introduced by retroviral expression into STIM1−/− T cells, and their ability to elevate resting Ca^2+ permeability was examined in cells loaded with Fura-2. As in human Jurkat T cells (Huang, G. N., et al., (2006); supra), expression of the soluble cytoplasmic portion of STIM 1 activated Ca^2+ influx into STIM1−/− murine T cells (FIG. 11). Elevated Ca^2+ permeability was evident in a marked increase in cytoplasmic [Ca^2+] on changing to medium containing 2 mM Ca^2+ after brief exposure to nominally Ca^2+-free medium. […] Retroviral vector alone conferred no constitutive influx above the level in control cells, as previously shown (Oh-hora, M., et al., (2008), supra).
Retroviral expression plasmids encoding mouse STIM 1 and its cytoplasmic fragments (residues 233-685, 233-600, 233-498, or 233-463) were constructed by inserting the corresponding coding sequences between the XhoI and EcoRI sites of the vector pMSCV-CITE-eGFP-PGK-Puro (Clontech), which allows for coexpression of the inserted gene, GFP, and a puromycin resistance gene. GFP expression was used to estimate transducing efficiency.
Primary CD4^+ cells were purified from spleen and lymph nodes of Stim1^f1/f1 CD4-Cre^+ mice using Dynal magnetic beads (Invitrogen) following the manufacturer's instructions. Purified T cells were stimulated with anti-CD3 and anti-CD28, transduced with retroviruses obtained from transfected Phoenix packaging cells, and further expanded in IL-2-containing medium as described (Oh-hora, M., et al., Nat Immunol 9, 432-443 (2008); Ansel, K. M., et al., Nat Immunol 5, 1251-1259 (2004)). The transduction efficiency (>80%) was estimated by evaluating GFP expression using flow cytometry.
Retrovirus-transduced CD4^+ cells isolated from Stim1^f1/f1 CD4-Cre^+ mice were incubated overnight in IL-2 free RPMI medium and loaded with 2 μM Fura-2-acetoxylmethyl ester (Invitrogen) for 45 min at ambient temperature in the dark. T cells were further attached to coverslips precoated with 0.01% poly-L-lysine, mounted to a RC-20 closed-bath flow chamber (Warner Instrument), and bathed in Ringer's solution (155 mM NaCl, 4.5 mM KCl, 2 mM CaCl2, 1 mM MgCl2, 10 mM D-glucose and 5 mM HEPES, pH 7.4). For nominally Ca^2+-free Ringer's solution CaCl2 was replaced with MgCl2. After 5 minutes of equilibration in Ringer's solution, [Ca^2+]i measurement commenced with ˜3 min perfusion of T cells with Ca^2+-free Ringer's solution at ambient temperature, followed by perfusion of Ringer's solution containing 2 mM CaCl2. The cycle was repeated once with final addition of Ringer's solution supplemented with 2 μM LaCl3 to block Ca^2+ flux. Images were acquired using a Zeiss Axiovert S200 epifluorescence microscope and OpenLab imaging analysis software (Improvision). The fluorescence data (F340 nm/F380 nm) were collected every 4 s and analyzed as described (Oh-hora, M., et al., (2008), supra; Feske, S., et al., Nature 441, 179-185 (2006)). In each experiment, for each experimental condition, 50-100 GFP-positive CD4+ T cells were analyzed.

ORAI1 (E106Q) = ORAI1 (E106Q) (Homo sapiens, UniProt Q96D31, E106Q); test: Tb3+ luminescence resonance energy transfer, lanthanide binding to ORAI1; design: Human ORAI1 (65-301) with an N-terminal FLAG tag was subcloned into the pPIC3.5K vector; made in house; host or cells: Pichia pastoris (membranes)
ORAI1 (E106Q), sequence (Q96D31 65-301 E106Q): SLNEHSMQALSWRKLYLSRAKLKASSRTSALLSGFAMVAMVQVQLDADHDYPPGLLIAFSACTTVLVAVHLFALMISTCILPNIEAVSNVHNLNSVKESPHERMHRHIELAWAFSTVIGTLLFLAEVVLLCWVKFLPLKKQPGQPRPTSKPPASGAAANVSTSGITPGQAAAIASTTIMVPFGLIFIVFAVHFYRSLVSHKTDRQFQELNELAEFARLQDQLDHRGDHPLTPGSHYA
Procedure: Tb3+ luminescence resonance energy transfer (Tb3+-LRET) experiments were performed on a FluoroLog®-3 spectrofluorometer (HORIBA Scientific) with a 1-cm lengthpath cuvette at ambient temperature. Emission spectra were collected from 500 to 600 nm with the excitation set at 282 nm, or at 295 nm to minimize the contribution from tyrosine. The slit widths for excitation and emission were set at 4 nm and 8 nm, respectively. A glass filter with cutoff of ˜320 nm was used to circumvent light scattering. […] Spectra from membranes lacking ORAI1, with the same total membrane protein content, served as negative control.
In each case, a scan of luminescence emission from membrane suspension alone was obtained, then Tb3+ was added into the cuvette and a second scan was performed (FIG. 12). Protein content of the two samples was the same. The presence of equivalent amounts of membrane microsomes was also evidenced by identical light scattering in the two cases prior to addition of Tb3+. Characteristic Tb3+ emission peaks at 547 nm and 589 nm were prominent in the ORAI sample, attributable to energy transfer from one or more of the native tryptophan residues of the protein.

[2] = molecular target: endogenous CRAC channels (ORAI1) of STIM1-/- murine T cells (mouse) (UniProt Q8BWG9); test: cell-based or functional assay
endogenous CRAC channels (ORAI1) of STIM1-/- murine T cells (mouse), sequence (Q8BWG9 whole entry): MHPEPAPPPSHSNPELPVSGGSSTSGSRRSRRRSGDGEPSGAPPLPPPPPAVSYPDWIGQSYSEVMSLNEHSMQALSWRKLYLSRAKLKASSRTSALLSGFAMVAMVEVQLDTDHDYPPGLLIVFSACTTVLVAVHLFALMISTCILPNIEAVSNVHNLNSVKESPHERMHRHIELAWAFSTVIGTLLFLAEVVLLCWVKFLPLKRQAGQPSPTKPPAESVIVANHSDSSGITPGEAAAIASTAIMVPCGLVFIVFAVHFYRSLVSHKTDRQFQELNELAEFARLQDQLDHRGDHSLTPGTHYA

Molecule: NCCOB(c1ccccc1)c1ccccc1 [2-APB, 2-aminoethoxydiphenyl borate]
- effect on ^45Ca^2+ uptake [1]: did not have this effect
- rate and extent of ^45Ca^2+ uptake (human ORAI3; 75 μM 2-APB versus control suspensions without 2-APB): increased
- ^45Ca^2+ uptake (cpm) (human ORAI3; 0.5 min): 2729.9 cpm
- ^45Ca^2+ uptake (cpm) (human ORAI3; 1 min): 3137.3 cpm
- ^45Ca^2+ uptake (cpm) (human ORAI3; 2 min): 4662.1 cpm
- ^45Ca^2+ uptake (cpm) (human ORAI3; 4 min): 6019.2 cpm
- ^45Ca^2+ uptake (cpm) (human ORAI3; ~0.25 min): 1913.5 cpm

Molecule: [Cl][La]([Cl])[Cl] [La^3+, LaCl3, reference compound]
- cytoplasmic [Ca^2+] upon exposure to La^3+ (STIM1−/− T cells; 2 μM LaCl3, continuing presence of external Ca^2+): rapid decline

Molecule: [Tb+3] [Tb3+]
- Tb3+ emission peaks at 547 nm and 589 nm (ORAI1 (E106Q); Pichia membranes containing ORAI1 (E106Q), Tb3+ 10-50 μM): prominent
- Tb3+-LRET signal (ORAI1 (E106Q); solubilized ORAI1): specific Tb3+-LRET signal

Molecule: Myc-tagged STIM1^CT (mouse STIM1 233-685) expressed by retrovirus in STIM1-/- T cells (from UniProt P70302 233-685)
- steepest rise of cytoplasmic [Ca^2+] (Fura-2, single cells) [2]: 15 nM/s

Molecule: STIM1 (233-600): truncated mouse STIM1 cytoplasmic fragment, residues 233-600
- maximum levels of cytoplasmic Ca^2+ (STIM1−/− T cells; compared with STIM1^CT): somewhat less than with STIM1^CT
- rate of rise of cytoplasmic Ca^2+ (STIM1−/− T cells; compared with STIM1^CT): nearly comparable to the rate with STIM 1^CT
- constitutive Ca^2+ influx (STIM1−/− T cells; retroviral expression, Fura-2): activated a prominent constitutive Ca^2+ influx
